≈ marks a conversion by molar mass, not a printed value. Where two headings read alike, the source gives them in different places. Peptide text beside a SMILES is read from it.
Tests used:
Assay type in all cases: cell-based
[1] = test system: E. coli; assay: microbe, parasite or virus in culture
Procedure: (§1) Broth dilution method was used to measure quantitatively the in vitro activity of an antimicrobial agent against a given bacterial isolate. First, a series of tubes/wells were prepared with a broth medium to which various concentrations of the antimicrobial agents were added. The tubes/wells were then inoculated with standardized suspension of the test organism. After overnight incubation at 35±2° C., the tests were examined and the minimum inhibitory concentration (MIC) was determined. The procedures were performed under aseptic conditions. Stock culture: Stock cultures were maintained in Mueller Hinton Broth containing 15% Glycerol and stored at −80° C. Stock cultures were sub-cultured on to Mueller Hinton Agar (MHA), and incubated overnight at 37° C. […] Washing of cells: the cells were washed with PBS (pH 7.1) by centrifuging at 3000 rpm for 10 minutes. A cell suspension in Mueller Hinton broth (MHB) having a turbidity equivalent to a 0.5 McFarland turbidity standard was prepared using a Beckman Coulter DU 800 Spectrophotometer measuring at 600 nm wavelength. This is a suspension containing approximately […] of microbe. The suspension was diluted in MH broth so that, after dilution, the tube contained approximately 5×10^6 CFU/mL, and after inoculation, each well contains approximately 5×10^5 CFU/mL. Broth dilution procedure: small volumes of MH broth dispensed in sterile, polystyrene, non-pyrogenic tissue culture plates, 96 well, flat bottoms with low evaporation lid were prepared (each well contained 0.1 mL of MH broth) followed by the final two fold dilutions of antimicrobial agent dispensed volumetrically into the broth. […] Inoculation: each well of a microdilution plate was inoculated. The purity of the inoculum suspension was checked by sub-culturing an aliquot on to MH agar plate. Colony counts on inoculum suspensions were performed periodically, to ensure that the final inoculum concentration was approximately […]. […] To prevent drying, each plate was sealed with parafilm and the plates were kept in a moist chamber while incubating at 37° C. overnight, in a shaking incubator. Determining MIC endpoints: The MIC is defined as the lowest concentration of an antimicrobial that will inhibit growth of a microorganism. The in plate dilution method the endpoint is detected by the unaided eye.

[2] = test system: S. Aureus; assay: microbe, parasite or virus in culture
Procedure: as §1

[3] = test system: P. Auregenosa; assay: organism not typed
Procedure: as §1

[4] = test system: C. Albicans; assay: Broth dilution MIC against C. Albicans; conditions: Candida albicans, Monotherapy, overnight incubation
Procedure: Broth dilution method was used to measure quantitatively the in vitro activity of an antimicrobial agent against a given bacterial isolate. First, a series of tubes/wells were prepared with a broth medium to which various concentrations of the antimicrobial agents were added. The tubes/wells were then inoculated with standardized suspension of the test organism. After overnight incubation at 35±2° C., the tests were examined and the minimum inhibitory concentration (MIC) was determined. The procedures were performed under aseptic conditions. Stock culture: Stock cultures were maintained in Mueller Hinton Broth containing 15% Glycerol and stored at −80° C. Stock cultures were sub-cultured on to Mueller Hinton Agar (MHA), and incubated overnight at 37° C. […] Washing of cells: the cells were washed with PBS (pH 7.1) by centrifuging at 3000 rpm for 10 minutes. A cell suspension in Mueller Hinton broth (MHB) having a turbidity equivalent to a 0.5 McFarland turbidity standard was prepared using a Beckman Coulter DU 800 Spectrophotometer measuring at 600 nm wavelength. This is a suspension containing approximately […] of microbe. The suspension was diluted in MH broth so that, after dilution, the tube contained approximately 5×10^6 CFU/mL, and after inoculation, each well contains approximately 5×10^5 CFU/mL. Broth dilution procedure: small volumes of MH broth dispensed in sterile, polystyrene, non-pyrogenic tissue culture plates, 96 well, flat bottoms with low evaporation lid were prepared (each well contained 0.1 mL of MH broth) followed by the final two fold dilutions of antimicrobial agent dispensed volumetrically into the broth. […] Inoculation: each well of a microdilution plate was inoculated. The purity of the inoculum suspension was checked by sub-culturing an aliquot on to MH agar plate. Colony counts on inoculum suspensions were performed periodically, to ensure that the final inoculum concentration was approximately 5×10^6 CFU/mL. […] The in plate dilution method the endpoint is detected by the unaided eye.

[5] = Escherichia coli, Monotherapy, E. coli, broth dilution, overnight incubation, read-out: MIC
[6] = Staphylococcus aureus, Monotherapy, S. Aureus, broth dilution, overnight incubation, read-out: MIC
[7] = Monotherapy, P. Auregenosa, broth dilution, overnight incubation, read-out: MIC
[8] = Monotherapy, E. coli, broth dilution, overnight incubation
[9] = Monotherapy, P. Auregenosa, broth dilution, overnight incubation

Row | Compound | MIC [1, 5] | MIC [2, 6] | MIC [3, 7] | MIC [4] | further results
1 | C[C@H]1[C@H](NC(=O)/C(=N\OC(C)(C)C(=O)O)c2csc(N)n2)C(=O)N1S(=O)(=O)O [Aztreonam] | 0.078 to 0.097 µg/mL (≈ 0.179 to 0.223 µM) | 625 to 1250 µg/mL (≈ 1440 to 2870 µM) | 15.6 to 19 µg/mL (≈ 35.9 to 43.6 µM) |  | 
2 | CC1(C)S[C@@H]2[C@H](NC(=O)[C@H](N)c3ccc(O)cc3)C(=O)N2[C@H]1C(=O)O [Amoxicillin] |  | 31.2 to 62.5 µg/mL (≈ 85.5 to 171 µM) | 250 to 500 µg/mL (≈ 684 to 1370 µM) |  | 
3 | CN[C@H](CC(C)C)C(=O)N[C@H]1C(=O)N[C@@H](CC(N)=O)C(=O)N[C@H]2C(=O)N[C@H]3C(=O)N[C@H](C(=O)N[C@H](C(=O)O)c4cc(O)cc(O)c4-c4cc3ccc4O)[C@H](O)c3ccc(c(Cl)c3)Oc3cc2cc(c3O[C@@H]2O[C@H](CO)[C@@H](O)[C@H](O)[C@H]2O[C@H]2C[C@](C)(N)[C@H](O)[C@H](C)O2)Oc2ccc(cc2Cl)[C@H]1O [Vancomycin] |  |  |  |  | MIC ([1]; Escherichia coli): 190 to 380 µg/mL (≈ 131 to 262 µM)
4 | Clc1ccc(COC(Cn2ccnc2)c2ccc(Cl)cc2Cl)c(Cl)c1 (stereo not drawn) [Miconazole] |  | 45 to 90 µg/mL (≈ 108 to 216 µM) |  | 1.4 to 2.8 µg/mL (≈ 3.36 to 6.73 µM) | 
5 | [H]/N=C(\N/C(=N/[H])NCCCCCCNC(=N)NC(=N)Nc1ccc(Cl)cc1)Nc1ccc(Cl)cc1 [Chlorhexidine] | 3.13 to 4 µg/mL (≈ 6.19 to 7.91 µM) | 3.12 to 4 µg/mL (≈ 6.18 to 7.91 µM) | 4 to 5 µg/mL (≈ 7.91 to 9.89 µM) | 3.12 to 4 µg/mL (≈ 6.18 to 7.91 µM) | 
6 | Gentamicin |  |  |  |  | MIC [1, 8]: 1.25 to 2.5 µg/mL; MIC [3, 9]: 0.625 to 1.25 µg/mL
7 | CC[C@H](C)[C@H](N)C1=N[C@H](C(=O)N[C@@H](CC(C)C)C(=O)N[C@H](CCC(=O)O)C(=O)N[C@H](C(=O)N[C@H]2CCCCNC(=O)[C@H](CC(N)=O)NC(=O)[C@@H](CC(=O)O)NC(=O)[C@H](Cc3cnc[nH]3)NC(=O)[C@@H](Cc3ccccc3)NC(=O)[C@H]([C@@H](C)CC)NC(=O)[C@@H](CCCN)NC2=O)[C@@H](C)CC)CS1 [Bacitracin] (HELM PEPTIDE1{[CC[C@H](C)[C@H](N)C1=N[C@H](C(=O)[*:2])CS1].L.[dE].I.K.[NCCC[C@@H](N[*:1])C(=O)[*:2]].I.[dF].H.[dD].N}$PEPTIDE1,PEPTIDE1,5:R3-11:R2$$$V2.0) |  |  |  |  | MIC [1]: 1000 to 1250 µg/mL; MIC [2]: 35 to 40 µg/mL; MIC [3]: 4000 to 5000 µg/mL
8 | Polymixin B |  |  |  |  | MIC [1, 8]: 7.8 to 10 µg/mL; MIC ([2]; Monotherapy, S. Aureus, broth dilution, overnight incubation): 62.5 to 100.0 µg/mL; MIC [3, 9]: 3.125 to 5.0 µg/mL
9 | O=C(O)c1cn(C2CC2)c2cc(N3CCNCC3)c(F)cc2c1=O [Ciprofloxacin] | 0.005 to 0.0078 µg/mL (≈ 0.0151 to 0.0235 µM) | 0.156 to 0.2 µg/mL (≈ 0.471 to 0.604 µM) | 0.156 to 0.25 µg/mL (≈ 0.471 to 0.754 µM) | > 2.5 µg/mL | 

Source: US8357385B2, “Combination therapy for the treatment of bacterial infections” (Interface Biologics Inc., priority 2008, dated 2013)
